Test results: patent US9096538B2, “Pharmaceutical comprising PPAR agonist” (Senju Pharmaceutical Co., Ltd., priority 2005, dated 2015)

What was measured:
[1] = test system: normal human corneal epithelial cell; assay: Test Example 5: increase in cell number, normal human corneal epithelial cell, 24 hours (Cell Counting Kit-8); type: cell-based; conditions: no addition group = 100%, average ± standard deviation, N = 3 to 4
Protocol: (§1) A normal human corneal epithelial cell (KURABO) was used.
As the test substance, the following compounds were used. PPARδ agonist: L-165041 (Sigma-Aldrich), GW-501516 (Alexis)
In addition, as a positive control for confirming the cell proliferation promoting effect, a medium in which a mouse-derived epithelial growth factor (mEGF) contained in an HCGS proliferation additive set (KURABO) was added to a basal medium (basal medium+1 ng/mL mEGF) was used.
This cell suspension was seeded on a fibronectin-coated multiwell plate (24 well, BECTON DICKINSON) so that the cell number became 2×10^4 cells/500 μL/well (since the bottom area is 2 cm^2, the number is 1×10^4 cells/cm^2).
Further, 24 hours thereafter, the culture medium was exchanged with each 400 μL of the following culture media. • [1] Only basal medium (no addition group) • [2] Basal medium+mEGF (final concentration: 1 ng/mL; positive control group) • [3] Basal medium+L-165041 (final concentration: 0.01 μM and 0.1 μM) • [4] Basal medium+GW-501516 (final concentration: 0.001 μM and 0.01 μM)

[2] = test system: monkey meibomian gland epithelial cell; assay: Test Example 8: increase in number of monkey meibomian gland epithelial cells (Cell Counting Kit-8); type: cell-based; conditions: 3 x 48 hours; for Cell proliferation (%): no addition group = 100%, average ± standard deviation, N = 5
Text: For studying the effect of promoting cell proliferation by each test substance, a culture medium prepared by removing the supplement attached to DK-SFM, from DK-SFM, was used as a basal medium, while as a positive control for confirming the cell proliferation promoting effect, a culture medium with the supplement added thereto (basal medium+supplement) was used according to instructions of an DK-SFM preparation protocol. […] In the test, a monkey meibomian gland epithelial cell which had been cultured to subconfluent, suspended in a cell banker (Nippon Zenyaku Kogyo Co., Ltd.), and cryopreserved in liquid nitrogen was used. The cell which had been cryopreserved was thawed, and transferred to a 50 mL centrifuge tube and a 10-fold amount of DK-SFM was added thereto. […] Each 64 μL of this cell suspension was dispensed into each well so that the cell number per bottom area (0.32 cm^2) of the collagen-treated 96-well culture dish for tissue culture became 4×10^4 cells/cm^2. […] After 48 hours from initial culture medium exchange, the culture medium was exchanged with a freshly prepared culture medium of each of [1] to [4]. Further, after 48 hours therefrom, the culture medium was exchanged again with a freshly prepared culture medium of each of [1] to [4].

[3] = test system: normal human corneal epithelial cell; assay: Test Example 6: increase in cell number, normal human corneal epithelial cell, 48 hours (Cell Counting Kit-8); type: cell-based; conditions: 10^−8 M, no addition group = 100%, average ± standard deviation, N = 4 to 5
Protocol: as §1
As the test substance, the following compounds were used. • PPARδ Agonist: GW-501516 (Alexis), GW-0742 (Sigma-Aldrich)
Only basal medium (no addition group) • [2] Basal medium+GW-501516 (final concentration: 0.01 μM) • [3] Basal medium+GW-0742 (final concentration: 0.01 μM)

[4] = test system: rabbit corneal epithelial cell; assay: Test Example 2: increase in cell number, cultured rabbit corneal epithelial cell, 120 hours (Cell Counting Kit-8); type: cell-based; conditions: no addition group = 100%, average ± standard deviation, N = 5
Protocol: A male rabbit (Japanese white, weight: about 1.5 kg, […] LABES Co., Ltd.) was used. The experimental animal was used according to the International Guiding Principles for Biomedical Research Involving Animals.
A rabbit corneal epithelial cell was prepared using the same process as that of (Test example 1).
As the test substance, the following compounds were used. • PPARδ agonist: L-165041 (Sigma-Aldrich) and GW-501516 (Alexis)
For studying the effect of promoting cell proliferation by each test substance, a culture medium prepared by removing a mouse-derived epithelial growth factor (mEGF) attached to RCGM2, from RCGM2, was used as a basal medium, while as a positive control for confirming the effect of promoting cell proliferation, a medium with an mEGF added thereto (basal medium+10 ng/mL mEGF) was used according to instructions of an RCGM2 preparation protocol.
Collagen treatment of the culture dish was performed using the same process as that of (Test Example1).
In the test, a rabbit corneal epithelial cell which had been cultured to subconfluent in a culture dish having a diameter of 10 cm was used. After the culture medium was removed, the bottom of the culture dish was washed two times using D-PBS, to this was added 1 mL of trypsin-EDTA, this was incubated at 37° C. for 5 minutes and thereby, the cell was peeled from the bottom of the culture dish. After incubation, 9 mL of MEM containing 10% FBS was added to the culture dish to stop the enzymatic reaction, and this was subjected to centrifugation at room temperature and 1,500 rpm for 5 minutes to obtain a corneal epithelial cell layer. To the resulting cell was added an appropriate amount of RCGM2 to a cell concentration of 1×10^5 cells/mL to suspend the cell. Each 64 μL of this cell suspension was dispensed in each well at the cell number per bottom area (0.32 cm^2) of the collagen-treated 96-well culture dish for tissue culture of […]. […] After 24 hours from cell seeding, the culture medium was discarded, and each 100 μL of the following culture media were freshly dispensed into each well of the culture dish. • [1] Only basal medium (no addition group) • [2] Basal medium+mEGF (final concentration: 10 ng/mL; positive control group) • [3] Basal medium+L-165041 (final concentration: 0.1 μM and 1 μM) • [4] Basal medium+GW-501516 (final concentration: 0.01 μM and 0.1 μM)
The culture supernatant of each well was removed every 48 hours from exchange of the culture medium containing a test substance, and each 100 μL of the freshly prepared culture medium was dispensed into each well.

[5] = test system: corneal epithelial wound; assay: Test Example 9: healing of corneal epithelial wound after corneal epithelium scraping, eyedrop; type: in vivo, rabbit; conditions: 0.05% eyedrop; for ratio (%) of remaining corneal epithelial defect: initial value = 100%, average ± standard deviation, N = 4
Text: A male rabbit (Japanese white, […] LABES Co., Ltd.) was used. The experimental animal was used according to the International Guiding Principles for Biomedical Research Involving Animals.
As the test substance, a PPARδ agonist GW-501516 (Alexis Biochemicals) was used. A solution in which GW-501516 was suspended in the following vehicle to 0.05% was used as an eyedrop solution.
As a control for the test substance administration group, the aforementioned vehicle administration group containing no drug was set.
After the animal was subjected to systemic anesthesia by intramuscular injection (0.9 mL/kg) with a selactar (2% xylazine: Bayer): ketalar (5% ketamine: Sankyo)=0.5:1 mixed solution, an oxybuprocaine hydrochloride eyedrop solution (Benoxil eyedrop solution 0.4%; Santen Pharmaceutical Co., Ltd.) was administered, and eyeballs were exposed. A mark having a diameter of 6 mm was stamped on a corneal epithelium at a corneal central part using a trephine having a diameter of 6 mm, and a whole corneal epithelial layer within a stamped circumference was scraped using a handy rooter under a stereomicroscope. After scraping, a corneal surface was washed using physiological saline (Otsuka Pharmaceutical Factory Inc.), and eyeballs were returned into the orbit to complete the corneal epithelial scraping treatment.
A test substance eyedrop solution or an eyedrop solution vehicle was administered to treated eyes at 50 μL per once using a micropipette two times a day on the corneal epithelium scraping day and, on the following day and thereafter, four times a day until completion of the test.
At the time point at which corneal epithelium scraping of both eyes of all individuals was completed was defined as the test initiation time (0 hour) and, by quantitating the corneal epithelial defect area at 24, 38 and 48 hours thereafter, restoration of a corneal epithelium was assessed. That is, at each time point, 10 μL of a 0.1% fluorescein sodium (Wako Pure Chemical Industries, Ltd.) solution was administered to treated eyes, a photograph of an anterior ocular segment of the animal was immediately taken using a slit lamp equipped with a cobalt filter and thereby, a stained corneal epithelial defect region was recorded. A developed photograph was stored as a digital image in a computer, and an area of the stained corneal epithelial defect part was measured using image analysis software (Image-Pro Plus).
Regarding the corneal epithelial defect area measured at each time point, a value for each individual was calculated, assuming that its initial value was 100%, and this was adopted as a ratio of the remaining corneal epithelial defect.

## Cc1cc(SCc2sc(-c3ccc(C(F)(F)F)cc3)nc2C)ccc1OCC(=O)O [GW-501516, (2-methyl-4-(((4-methyl-2-(4-(trifluoromethyl)phenyl)-5-thiazolyl)methyl)thio)phenoxy)acetic acid]
[1]; 10^−8 M
  Cell proliferation (%): 125.7 ± 2.3%
[1]; 10^−9 M
  Cell proliferation (%): 133.1 ± 3.7%
[2]; 10^−7 M
  cell proliferation compared to the no addition group (in words): significantly higher than in the no addition group
  Cell proliferation (%): 156.1 ± 18.9%
[2]; 10^−8 M
  Cell proliferation (%): 133.3 ± 7.4%
[3]
  Cell proliferation (%): 129.2 ± 7.5%
[4]; 10^−7 M
  Cell proliferation (%): 213.2 ± 34.0%
[4]; 10^−8 M
  Cell proliferation (%): 223.9 ± 24.1%
[5]; 0 hour (initial value)
  ratio (%) of remaining corneal epithelial defect: 100.0 ± 6.5%
[5]; 24 hours and 38 hours after corneal epithelium scraping
  ratio of the corneal epithelial defect compared to vehicle (in words): significantly decreased
[5]; 24 hours later, 50 μL
  ratio (%) of remaining corneal epithelial defect: 25.3 ± 3.1 %
[5]; 38 hours later, 50 μL
  ratio (%) of remaining corneal epithelial defect: 0.2 ± 0.2 %
[5]; after 48 hours, all individuals (vehicle group too)
  corneal epithelial defect (in words): disappeared in all individuals
